The first assay concerns the target human TLR7 (Homo sapiens (Human), UniProt Q9NYK1). In words: Test for evaluating the inhibition of the activation of human TLR7 (SEAP reporter, TLR7/NF-κB/SEAPorter HEK293 cell). The class given is cell-based. The conditions noted are these: R-848 200 nmol/L, SEAP activity, result in words. Here is the method:
As human TLR7 expressing cell line, HEK293 cell line was bought from IMGENEX Corporation (TLR7/NF-ηB/SEAPorter™ HEK293 cell), which is human embryonic kidney cell line and stably expresses full-length human TLR7 gene and secreted alkaline phosphatase (SEAP) reporter gene under the transcriptional control of an NE-ηB response element. The TLR7/NF-ηB/SEAPorter™ HEK293 cell was cultivated with DMEM containing 10% fetal bovine serum (FBS) and 10 μg/mL blasticidin S at 37° C. in the presence of 5% CO2. The TLR7/NF-ηB/SEAPorter™ HEK293 cell was seeded into 96-well microtiter plate at 5×10^4 cell/90 μL/well, and the place was cultivated at 37° C. in a CO2 incubator overnight.
Each compound prepared in the Examples was evaluated by Test 1.
Chain of human TLR7 (Q9NYK1 27-1049): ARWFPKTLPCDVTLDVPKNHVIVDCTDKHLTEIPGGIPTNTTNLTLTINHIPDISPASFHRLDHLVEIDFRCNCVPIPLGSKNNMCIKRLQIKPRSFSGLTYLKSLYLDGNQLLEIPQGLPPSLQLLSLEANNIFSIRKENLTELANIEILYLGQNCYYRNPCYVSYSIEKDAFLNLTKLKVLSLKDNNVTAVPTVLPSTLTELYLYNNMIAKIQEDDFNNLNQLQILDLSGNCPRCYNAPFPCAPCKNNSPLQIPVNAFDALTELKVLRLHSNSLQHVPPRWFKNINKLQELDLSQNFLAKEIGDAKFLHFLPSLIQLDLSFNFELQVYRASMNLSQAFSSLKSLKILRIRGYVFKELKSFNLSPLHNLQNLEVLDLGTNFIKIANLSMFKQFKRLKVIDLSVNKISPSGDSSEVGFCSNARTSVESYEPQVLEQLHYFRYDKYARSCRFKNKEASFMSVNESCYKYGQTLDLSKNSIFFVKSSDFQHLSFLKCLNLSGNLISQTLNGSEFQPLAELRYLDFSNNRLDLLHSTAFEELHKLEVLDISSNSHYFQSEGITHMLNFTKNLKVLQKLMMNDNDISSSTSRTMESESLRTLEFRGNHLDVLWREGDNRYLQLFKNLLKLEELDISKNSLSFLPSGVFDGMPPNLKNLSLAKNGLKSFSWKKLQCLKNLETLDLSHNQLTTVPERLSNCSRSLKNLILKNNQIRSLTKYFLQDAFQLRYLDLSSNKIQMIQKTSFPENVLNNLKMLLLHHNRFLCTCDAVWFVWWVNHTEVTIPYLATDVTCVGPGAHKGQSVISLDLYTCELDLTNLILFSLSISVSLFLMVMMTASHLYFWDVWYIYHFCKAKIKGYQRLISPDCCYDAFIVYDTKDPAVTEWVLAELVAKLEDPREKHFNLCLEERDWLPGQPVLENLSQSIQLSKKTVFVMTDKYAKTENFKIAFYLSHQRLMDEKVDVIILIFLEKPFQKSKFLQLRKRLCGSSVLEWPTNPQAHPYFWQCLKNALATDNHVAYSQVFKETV
Take `COc1nc(C)c2nc(-c3cncc(C#N)c3)n(Cc3ccc(C4CN5CCC4CC5)cc3F)c2n1` (single isomer, unassigned) [Example 403, 5-{9-[4-(1-azabicyclo[2.2.2]oct-3-yl)-2-fluorobenzyl]-2-methoxy-6-methyl-9H-purin-8-yl}pyridine-3-carbonitrile]: the “inhibitory effect against TLR7 in the test for evaluating inhibition of the activation of TLR7” value is “potent inhibitory effect against TLR7”.

Take `CCOc1nc(N)c2nc(-c3cncc(F)c3)n(Cc3ccc(C4CN5CCC4CC5)cc3)c2n1` (centres unmarked) [Example 46]: the “inhibitory effect against TLR7 in the test for evaluating inhibition of the activation of TLR7” value is given as “potent inhibitory effect against TLR7”.

The same assay, now with this note: R-848 200 nmol/L, SEAP reporter.
`COc1nc(C)c2nc(-c3cncc(F)c3)n(Cc3ccc(C4CN5CCC4CC5)cc3F)c2n1` (single isomer, unassigned) [Example 392, 9-[4-(1-azabicyclo[2.2.2]oct-3-yl)-2-fluorobenzyl]-8-(5-fluoropyridin-3-yl)-2-methoxy-6-methyl-9H-purine] had an IC50 of 13 nM. In other words, the double-digit nanomolar range. Take `COc1nc(C)c2nc(-c3cncc(F)c3)n(Cc3ccc(C4CN5CCC4CC5)cc3F)c2n1` (single isomer, unassigned) [Example 393, 9-[4-(1-azabicyclo[2.2.2]oct-3-yl)-2-fluorobenzyl]-8-(5-fluoropyridin-3-yl)-2-methoxy-6-methyl-9H-purine]: half-maximal inhibition (IC50) was put at 1 nM.

In the case of `COc1nc(C)c2nc(-c3cncc(C#N)c3)n(Cc3ccc(C4CN5CCC4CC5)cc3F)c2n1` (single isomer, unassigned) [Example 402, 5-{9-[4-(1-azabicyclo[2.2.2]oct-3-yl)-2-fluorobenzyl]-2-methoxy-6-methyl-9H-purin-8-yl}pyridine-3-carbonitrile], 132 nM corresponded to half-maximal inhibition (IC50). `COc1nc(C)c2nc(-c3cncc(C#N)c3)n(Cc3ccc(C4CN5CCC4CC5)cc3F)c2n1` (single isomer, unassigned) [Example 403, 5-{9-[4-(1-azabicyclo[2.2.2]oct-3-yl)-2-fluorobenzyl]-2-methoxy-6-methyl-9H-purin-8-yl}pyridine-3-carbonitrile] came in with an IC50 of 21 nM. In turn, `CCCCOc1nc(N)c2nc(-c3cncc(F)c3)n(Cc3ccccc3)c2n1` [Example 1, 9-Benzyl-2-butoxy-8-(5-fluoropyridin-3-yl)-9H-purine-6-amine] came in with an IC50 of 2300 nM. `CCCCOc1nc(N)c2nc(-c3cccnc3)n(Cc3ccccc3)c2n1` [Example 2] gave an IC50 of 5500 nM. Compound `CCCCOc1nc(N)c2nc(-c3cccnc3)n(Cc3cccnc3)c2n1` [Example 3] came in with an IC50 of 9200 nM. On to `CCCCOc1nc(N)c2nc(-c3ccncc3)n(Cc3ccccc3)c2n1` [Example 4], for which it took 7800 nM to reach half-maximal inhibition (IC50). For the compound `CCCCOc1nc(N)c2nc(-c3cncnc3)n(Cc3ccccc3)c2n1` [Example 5], the IC50 was found to be 1400 nM.

Compound `CCCCOc1nc(N)c2nc(-c3cnc(N)nc3)n(Cc3ccccc3)c2n1` [Example 6] yielded an IC50 of 9600 nM. This IC50 is about 6.9-fold higher than that of the compound before. On to `CCCCOc1nc(N)c2nc(-c3ccoc3)n(Cc3ccccc3)c2n1` [Example 7], for which the IC50 is 7800 nM. `CCCCOc1nc(N)c2nc(-c3cnn(C)c3)n(Cc3ccccc3)c2n1` [Example 8]: the IC50 stood at 9300 nM. The IC50 values of the last two compounds are within 1.5-fold of each other.

Regarding `CCCCOc1nc(N)c2nc(-c3ccccc3)n(Cc3cccnc3)c2n1` [Example 9], it took 12800 nM to reach half-maximal inhibition (IC50). This IC50 and that of the compound before are within 1.5-fold of each other. `CCCCOc1nc(N)c2nc(-c3cncc(OC)c3)n(Cc3ccccc3)c2n1` [Example 10] yielded an IC50 of 800 nM. `CCCCOc1nc(N)c2nc(-c3ccccc3)n(Cc3ccccc3)c2n1` [Example 11] returned an IC50 of 10900 nM. Same read-out and setting: with `CCCCOc1nc(N)c2nc(-c3cccc(OC)c3)n(Cc3ccccc3)c2n1` [Example 12] the figure was 9200 nM; with `CCCCOc1nc(N)c2nc(-c3cccc(Cl)c3)n(Cc3ccccc3)c2n1` [Example 13], 9300 nM; with `CCCCOc1nc(N)c2nc(-c3cncc(Cl)c3)n(Cc3ccccc3)c2n1` [Example 17], 1100 nM. Take `CCCCOc1nc(N)c2nc(-c3cncc(C)c3)n(Cc3ccccc3)c2n1` [Example 18]: half-maximal inhibition (IC50) was put at 2700 nM.

`CCCCOc1nc(N)c2nc(-c3cncc(COC)c3)n(Cc3ccccc3)c2n1` [Example 19] gave an IC50 of 1400 nM. Against the preceding compound, the IC50 is about 1.9-fold lower.

For `CCCCOc1nc(N)c2nc(-c3cncc(CO)c3)n(Cc3ccccc3)c2n1` [Example 20], the midpoint of inhibition, the IC50, lay at 22500 nM. The same measure, in the same setting: the result for `CCOc1nc(N)c2nc(-c3cncc(F)c3)n(Cc3ccccc3)c2n1` [Example 21] reads 700 nM; that for `CCOc1nc(N)c2nc(-c3cncc(F)c3)n(Cc3cccnc3)c2n1` [Example 22], 2000 nM; that for `COCCOc1nc(N)c2nc(-c3cncc(OC)c3)n(Cc3ccccc3)c2n1` [Example 24], 13700 nM.

With `COCCOc1nc(N)c2nc(-c3cncc(F)c3)n(Cc3ccccc3)c2n1` [Example 25], 3500 nM corresponded to half-maximal inhibition (IC50).

`CCCCNc1nc(N)c2nc(-c3cncc(OC)c3)n(Cc3ccccc3)c2n1` [Example 26] returned an IC50 of 18700 nM. Compared with the last compound, the IC50 is about 5.3-fold higher. On the same count and under the same terms, the result for `CCCCCc1nc(N)c2nc(-c3cncc(OC)c3)n(Cc3ccccc3)c2n1` [Example 27] reads 1400 nM.

Compound `CCCCOc1nc(N)c2nc(-c3cncc(COC)c3)n(Cc3ccccc3)c2n1` [Example 29] registered an IC50 of 1000 nM.

In turn, `CCOc1nc(N)c2nc(-c3cncc(C(F)F)c3)n(Cc3ccccc3)c2n1` [Example 30] had an IC50 of 2800 nM.

In turn, `COCCOc1nc(N)c2nc(-c3cncc(C#N)c3)n(Cc3ccc(CN(C)C)cc3)c2n1` [Example 31] gave an IC50 of 7700 nM. `COCCOc1nc(N)c2nc(-c3cnc4ccccc4c3)n(Cc3ccc(CN(C)C)cc3)c2n1` [Example 32] had an IC50 of 8600 nM. This IC50 and that of the compound before are within 1.5-fold of each other. Turning to `CCOc1nc(N)c2nc(-c3cncc(C)c3)n(Cc3ccc(CN(C)C)cc3)c2n1` [Example 33], half-maximal inhibition (IC50) was put at 820 nM. The same measure, in the same setting: with `CCOc1nc(N)c2nc(-c3cncc(COC)c3)n(Cc3ccc(CN(C)C)cc3)c2n1` [Example 34] the figure was 1700 nM; with `CCCCOc1nc(N)c2nc(-c3ccccn3)n(Cc3ccccc3)c2n1` [Example 35], 18100 nM; with `CCOc1nc(N)c2nc(-c3cncc(OC)c3)n(Cc3ccc(CN(C)C)cc3)c2n1` [Example 36], 2900 nM.

For the compound `CCOc1nc(N)c2nc(-c3cncc(F)c3)n(Cc3cnn(C)c3)c2n1` [Example 37], half-maximal inhibition (IC50) was put at 2700 nM.

Compound `CCOc1nc(N)c2nc(-c3cncc(F)c3)n(Cc3ccc(O[C@@H]4CCN(C)C4)nc3)c2n1` [Example 38] showed an IC50 of 520 nM. In turn, `CCOc1nc(N)c2nc(-c3cncc(F)c3)n(Cc3ccc(O[C@H]4CCN(C)C4)nc3)c2n1` [Example 39] gave an IC50 of 820 nM. As for `CCOc1nc(N)c2nc(-c3cncc(F)c3)n(Cc3ccc(O[C@@H]4CN5CCC4CC5)nc3)c2n1` [Example 40], the IC50 is 120 nM. For the compound `CCOc1nc(N)c2nc(-c3cncc(F)c3)n(Cc3ccc(O[C@H]4CN5CCC4CC5)nc3)c2n1` [Example 41], 140 nM corresponded to half-maximal inhibition (IC50). Consider `CCOc1nc(N)c2nc(-c3cncc(F)c3)n(Cc3ccc(OCCCN(C)C)nc3)c2n1` [Example 42], for which inhibition was half-maximal at 550 nM (IC50). Against the preceding compound, the IC50 is about 3.9-fold higher.

With `CCOc1nc(N)c2nc(-c3cncc(F)c3)n(Cc3cc(OC)ccc3F)c2n1` [Example 43], the IC50 was 2000 nM. Turning to `CCOc1nc(N)c2nc(-c3cncc(F)c3)n(Cc3ccccc3F)c2n1` [Example 44], half-maximal inhibition (IC50) required 750 nM. This IC50 is about 2.7-fold lower than that of the compound before.

`CCOc1nc(N)c2nc(-c3cncc(F)c3)n(Cc3ccc(-c4cncc(F)c4)cc3)c2n1` [Example 45] returned an IC50 of 950 nM. The same measure, in the same setting: with `CCOc1nc(N)c2nc(-c3cncc(F)c3)n(Cc3ccc(C4CN5CCC4CC5)cc3)c2n1` (centres unmarked) [Example 46] the figure was 25 nM.

(Values after patent US10703755B2, “Substituted purine derivative” (SUMITOMO DAINIPPON PHARMA CO., LTD., priority 2016, dated 2020).)
